Drawing on US7990502B2, “Liquid-crystal display device” (Fujifilm Corporation, priority 2007, dated 2011), this text covers logP for four compounds.

The data set in a line: log P value (octanol-water partition coefficient) of the compound capable of mending the humidity dependence. The class given is physicochemical. The settings on record: octanol-water partition coefficient of the humidity-dependence mending compound used in the second retardation film. From the text:
Log P of the compound capable of mending the humidity dependence for use in the invention is preferably from 3 to 10, more preferably from 3 to 7. Using the compound capable of mending the humidity dependence having log P that falls within the above range may reduce the humidity dependence of Re not causing a face condition trouble such as bleeding out, etc.
The log P value means an octanol-water partition coefficient, and it may be determined according to the flask shaking method described in JIS (Japanese Industrial Standards) Z7260-107 (2000). In place of determining it through actual measurement, the octanol-water partition coefficient (log P value) may be estimated according to a computational chemical method or an experimental method. As the computational method, preferably employed are a Crippen's fragmentation method (J. Chem. Inf. Comput. Sci., 27, 21 (1987)), a Viswanadhan's fragmentation method (J. Chem. Inf. Comput. Sci., 29, 163 (1989)), a Broto's fragmentation method (Eur. J. Med. Chem.-Chim. Theor., 19, 71 (1984)). Particularly, the Crippen's fragmentation method (J. Chem. Inf. Comput. Sci., 27, 21 (1987)) is preferably employed. In case where the log P value of a certain compound differs depending on the measurement method or the computational method employed, the compound is preferably judged according to a Crippen's fragmentation method as to whether or not it could fall within the preferred range.

Regarding `O=C(Oc1ccccc1)[C@H]1CC[C@H](C(=O)Oc2ccccc2)CC1` [Compound A-1], the logP (commonly the decadic logarithm of the partition coefficient of the neutral form, usually between octanol and water) came to 3.7.
To `CCc1ccc(OC(=O)[C@H]2CC[C@H](C(=O)Oc3ccc(CC)cc3)CC2)cc1` [Compound A-3] belongs 5.8.
To `Cc1ccc(OC(=O)[C@H]2CC[C@H](C(=O)Oc3ccc(C)cc3C)CC2)c(C)c1` [Compound A-6] belongs 5.7; to `CCCCCCCc1ccc(OC(=O)[C@H]2CC[C@H](C(=O)Oc3ccc(CCCCCCC)cc3)CC2)cc1` [D], 11.
